Measured values taken from publication PMC12163657 (ACS Omega, 2025).

Key:
ERα LBD = target: T1, ERα LBD (Homo sapiens, UniProt P03372); experiment: LanthaScreen TR-FRET ERα competitive binding assay
T1 sequence (P03372 311-547 limits assumed): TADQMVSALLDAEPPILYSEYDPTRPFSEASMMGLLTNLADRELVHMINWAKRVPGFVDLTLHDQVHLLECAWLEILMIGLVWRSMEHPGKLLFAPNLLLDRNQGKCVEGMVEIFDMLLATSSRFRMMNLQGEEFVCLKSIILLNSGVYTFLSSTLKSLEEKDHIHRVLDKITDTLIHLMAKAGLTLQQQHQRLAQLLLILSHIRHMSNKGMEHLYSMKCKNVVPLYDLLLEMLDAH

[1] = Human hepatocyte stability; type: in vitro ADME; conditions: hepatocytes
[2] = In vivo mouse oral single dose PK
ERβ = ERβ (Homo sapiens, UniProt Q92731); experiment: Reporter assay of gene transcription activity, ERβ; type: cell-based
ERβ, sequence (Q92731 whole entry, species assumed): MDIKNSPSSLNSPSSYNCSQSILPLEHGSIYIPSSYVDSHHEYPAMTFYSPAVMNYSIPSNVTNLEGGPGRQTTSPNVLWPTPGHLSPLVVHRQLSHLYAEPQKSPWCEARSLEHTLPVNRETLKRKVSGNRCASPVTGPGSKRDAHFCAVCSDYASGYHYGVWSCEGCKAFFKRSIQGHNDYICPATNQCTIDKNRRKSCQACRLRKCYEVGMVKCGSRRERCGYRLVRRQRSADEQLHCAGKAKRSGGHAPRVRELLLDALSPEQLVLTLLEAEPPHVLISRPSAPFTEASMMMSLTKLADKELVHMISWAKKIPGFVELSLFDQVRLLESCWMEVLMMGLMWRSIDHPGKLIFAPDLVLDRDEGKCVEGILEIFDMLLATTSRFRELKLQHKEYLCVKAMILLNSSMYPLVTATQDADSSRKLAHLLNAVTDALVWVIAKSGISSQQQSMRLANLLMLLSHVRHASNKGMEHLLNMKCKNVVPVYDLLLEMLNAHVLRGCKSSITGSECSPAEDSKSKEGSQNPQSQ

AR = target: T2, AR (Homo sapiens, UniProt P10275); experiment: Reporter assay of gene transcription activity, AR; type: cell-based; conditions: for IC50: reporter assay
T2 sequence (P10275 1-920): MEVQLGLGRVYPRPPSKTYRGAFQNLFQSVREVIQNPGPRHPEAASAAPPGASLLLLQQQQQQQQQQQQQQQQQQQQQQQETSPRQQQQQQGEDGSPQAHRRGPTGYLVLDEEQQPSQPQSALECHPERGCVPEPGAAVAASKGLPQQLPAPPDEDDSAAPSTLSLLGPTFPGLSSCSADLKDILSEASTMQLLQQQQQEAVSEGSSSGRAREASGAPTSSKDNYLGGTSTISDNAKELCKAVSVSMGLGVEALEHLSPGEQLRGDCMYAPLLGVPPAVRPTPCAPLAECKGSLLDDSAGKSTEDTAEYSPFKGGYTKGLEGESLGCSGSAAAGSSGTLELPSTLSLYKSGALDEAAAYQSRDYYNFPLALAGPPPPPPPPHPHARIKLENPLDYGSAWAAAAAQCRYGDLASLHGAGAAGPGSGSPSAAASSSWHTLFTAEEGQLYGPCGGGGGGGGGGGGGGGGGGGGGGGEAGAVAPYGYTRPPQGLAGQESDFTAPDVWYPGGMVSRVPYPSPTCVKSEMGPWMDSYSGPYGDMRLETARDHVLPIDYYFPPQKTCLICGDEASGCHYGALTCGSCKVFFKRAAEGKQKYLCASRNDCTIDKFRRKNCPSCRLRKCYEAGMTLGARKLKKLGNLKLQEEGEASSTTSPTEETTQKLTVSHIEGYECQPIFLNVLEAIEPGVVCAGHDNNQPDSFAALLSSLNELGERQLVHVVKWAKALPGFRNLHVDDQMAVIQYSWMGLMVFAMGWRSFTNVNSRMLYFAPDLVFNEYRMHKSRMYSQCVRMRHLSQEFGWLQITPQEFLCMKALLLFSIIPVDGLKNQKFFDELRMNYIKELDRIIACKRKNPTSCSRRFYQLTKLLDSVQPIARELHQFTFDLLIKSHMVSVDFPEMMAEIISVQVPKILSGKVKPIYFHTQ

ESR1 Asp538Gly = target: T3, ESR1 Asp538Gly (Homo sapiens, UniProt P03372, D538G); experiment: AP; type: cell-based
T3 sequence (P03372 1-595 D538G): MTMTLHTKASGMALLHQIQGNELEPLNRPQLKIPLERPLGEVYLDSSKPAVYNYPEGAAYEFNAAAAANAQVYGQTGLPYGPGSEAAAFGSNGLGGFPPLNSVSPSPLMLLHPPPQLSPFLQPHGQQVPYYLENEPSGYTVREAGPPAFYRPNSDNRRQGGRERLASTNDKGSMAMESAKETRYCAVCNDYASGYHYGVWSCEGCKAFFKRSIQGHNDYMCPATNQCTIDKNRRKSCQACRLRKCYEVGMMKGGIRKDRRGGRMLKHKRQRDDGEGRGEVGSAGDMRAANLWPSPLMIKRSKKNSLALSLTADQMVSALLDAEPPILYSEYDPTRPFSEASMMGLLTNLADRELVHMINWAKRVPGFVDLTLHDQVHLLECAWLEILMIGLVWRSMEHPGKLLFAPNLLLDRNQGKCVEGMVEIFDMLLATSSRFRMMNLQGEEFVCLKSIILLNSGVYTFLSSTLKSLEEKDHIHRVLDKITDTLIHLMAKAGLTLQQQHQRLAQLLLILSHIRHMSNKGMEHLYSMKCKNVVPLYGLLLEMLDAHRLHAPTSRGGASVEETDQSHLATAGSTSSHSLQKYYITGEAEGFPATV

[3] = tested on: CAMA-1 ESR1 Asp538Gly cells; experiment: CAMA-1 cell proliferation, ESR1 Asp538Gly; type: cell-based; conditions: Homo sapiens, CAMA-1, read-out: CAMA-1 cell prolif. pIC50 (converted)
[4] = tested on: CAMA-1 ESR1 Tyr537Ser cells; experiment: CAMA-1 cell proliferation, ESR1 Tyr537Ser; type: cell-based; conditions: Homo sapiens, CAMA-1, read-out: CAMA-1 cell prolif. pIC50 (converted)
BCRP = target: T4, BCRP (Homo sapiens, UniProt Q9UNQ0); experiment: BCRP inhibition, membrane vesicles; type: in vitro ADME
T4 sequence (Q9UNQ0 1-655): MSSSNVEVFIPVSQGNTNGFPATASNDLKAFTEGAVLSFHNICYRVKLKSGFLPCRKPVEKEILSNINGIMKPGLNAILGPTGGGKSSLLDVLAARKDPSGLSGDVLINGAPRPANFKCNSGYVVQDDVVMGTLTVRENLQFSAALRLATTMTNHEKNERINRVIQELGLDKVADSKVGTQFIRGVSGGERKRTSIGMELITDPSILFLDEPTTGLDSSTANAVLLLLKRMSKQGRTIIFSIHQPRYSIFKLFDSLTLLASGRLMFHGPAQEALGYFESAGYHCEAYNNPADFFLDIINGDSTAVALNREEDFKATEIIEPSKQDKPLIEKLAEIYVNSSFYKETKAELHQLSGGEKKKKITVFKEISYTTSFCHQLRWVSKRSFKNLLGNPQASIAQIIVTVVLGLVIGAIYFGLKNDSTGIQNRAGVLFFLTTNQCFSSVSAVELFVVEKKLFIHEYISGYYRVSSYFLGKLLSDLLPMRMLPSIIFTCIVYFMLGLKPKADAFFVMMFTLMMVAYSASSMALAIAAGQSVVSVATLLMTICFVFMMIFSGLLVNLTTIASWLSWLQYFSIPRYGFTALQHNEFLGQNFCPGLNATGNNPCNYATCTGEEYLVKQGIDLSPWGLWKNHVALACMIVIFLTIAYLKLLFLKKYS

CYP 3A4 = CYP 3A4 (Homo sapiens, UniProt P08684); experiment: CYP inhibition in human liver microsomes; type: in vitro ADME
CYP 3A4, sequence (P08684 whole entry): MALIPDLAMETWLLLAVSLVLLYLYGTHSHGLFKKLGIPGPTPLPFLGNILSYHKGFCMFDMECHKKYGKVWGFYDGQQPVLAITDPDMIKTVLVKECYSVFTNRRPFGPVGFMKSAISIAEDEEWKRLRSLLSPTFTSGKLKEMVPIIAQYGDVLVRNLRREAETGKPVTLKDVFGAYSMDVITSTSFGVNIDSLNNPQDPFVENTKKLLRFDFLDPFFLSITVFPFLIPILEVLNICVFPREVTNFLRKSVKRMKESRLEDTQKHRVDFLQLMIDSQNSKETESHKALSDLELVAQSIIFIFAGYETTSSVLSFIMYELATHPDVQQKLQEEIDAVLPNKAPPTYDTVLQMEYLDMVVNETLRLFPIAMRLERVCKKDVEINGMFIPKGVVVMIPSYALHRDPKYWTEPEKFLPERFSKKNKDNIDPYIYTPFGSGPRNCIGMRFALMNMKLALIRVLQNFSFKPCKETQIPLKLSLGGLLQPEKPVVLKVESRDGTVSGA

`CCCN1CC(Oc2ccc([C@@H]3c4[nH]c5ccccc5c4C[C@@H](C)N3CC(C)(C)F)cc2)C1` [compound 21, (1R,3R)-2-(2-Fluoro-2-methylpropyl)-3-methyl-1-(4-((1-propylazetidin-3-yl)oxy)phenyl)-2,3,4,9-tetrahydro-1H-pyrido[3,4-b]indole] showed an IC50 (ERα LBD) of 2 nM, a half-life [1] of 2.17 h and a hepatocyte CLint [1] of 10.7 µL/min/1e6 cells. For the same compound, the “total AUCinf” value ([2]; oral single dose) was 2477 ng·h/mL, the “free AUCinf” value ([2]; oral single dose, estimated based on the percent free fraction) was 1.5 ng·h/mL and the Cmax ([2]; plasma, po) was 121 ng/mL. For the same compound, the half-life ([2]; plasma, po) was 18 h, the IC50 (ERβ; Erβ pIC50, agonist mode, agonist mode) was > 3160 nM and the IC50 (ERβ; Erβ pIC50, antag. mode, antag. mode) was 3.16 nM. The IC50 (AR; AR pIC50, agonist mode, agonist mode) was > 3160 nM, the IC50 (AR; AR pIC50, antag. mode, antag. mode (agonist-induced activity)) was 1580 nM and the “agonist cross-reactivity on AR” value (AR; in words) was “no agonist cross-reactivity”. For the same compound, the IC50 (ESR1 Asp538Gly) was 31.6 nM, the IC50 [3] was 6.31 nM and the IC50 [4] was 12.6 nM. For the same compound, the IC50 (BCRP) was > 5000 nM and the IC50 (CYP 3A4) was > 10000 nM.
